The values below come from US11649236B2, “Polycyclic carbamoylpyridone derivative” (Shionogi & Co., Ltd., priority 2018, dated 2023).

This assay relates to HIV. As to the kind of experiment: Anti-HIV activity (MT-4 cells, MTT). In kind it is cell-based. The settings on record: Human immunodeficiency virus 1, MT4, 96 h, cultured 4 days. On the procedure: Serial dilutions of a test sample were prepared in a 96-well microplate (50 μL/well). 2.5×10^5 cells/mL of a MT-4 cell suspension was dispensed at 100 μL/well to the plate containing the test sample. Then, an HIV virus solution was dispensed at 50 μL/well. The plate was mixed with a plate mixer and cultured for 4 days in a CO2 incubator. An MTT (3-(4,5-dimethylthiazol-2-yl)-2,5-diphenyltetrazolium bromide) solution was dispensed at 30 μL/well. The plate was reacted for 1 hour in a CO2 incubator. 150 μL of the supernatant was removed from each well so as not to take up the cells. 150 μL of a cell lysis solution was added to each well and well mixed with a plate mixer until the cells were completely lysed. The absorbance of the mixed plate was measured at two wavelengths of 560 nm and 690 nm with a microplate reader.
What is called EC50 is the midpoint of the concentration-response curve. For `C[C@@H]1CCN2[C@@H](C1)N(C)C(=O)c1c(O)c(=O)c(C(=O)NCc3ccc(Cl)cc3F)cn12` [II-075], the midpoint of the response, the EC50, lay at 6.3 nM.
Compound `CCN1C(=O)c2c(O)c(=O)c(C(=O)NCc3ccc(F)cc3F)cn2N2CCN(C(=O)OC(C)(C)C)C[C@@H]12` [Compound I-009] returned an EC50 of 1.2 nM.
`CCN1C(=O)c2c(O)c(=O)c(C(=O)NCc3ccc(F)cc3F)cn2N2[C@@H]3CCC[C@@H]3CC[C@@H]12` [II-078]: a half-maximal effect (EC50) was put at 1.1 nM.
Consider `CCN1C(=O)c2c(O)c(=O)c(C(=O)NCc3cccc(F)c3F)cn2N2CCCC[C@@H]12` [Compound I-042], for which the midpoint of the response, the EC50, lay at 0.72 nM. This EC50 lies about 1.5-fold lower than the previous one.
Compound `CCN1C(=O)c2c(O)c(=O)c(C(=O)NCc3ccc(F)cc3F)cn2N2[C@@H](COC)CC[C@@H]12` [II-038] showed an EC50 of 2 nM.
The figure for `CCN1C(=O)c2c(O)c(=O)c(C(=O)NCc3ccc(F)cc3F)cn2N2CCOC[C@@H]12` [Compound I-001] is 0.52 nM; for `CCN1C(=O)c2c(O)c(=O)c(C(=O)NCc3c(F)cc(F)cc3F)cn2N2CC[C@@H](C)C[C@@H]12` [II-044] it is 0.84 nM; for `CCN1C(=O)c2c(O)c(=O)c(C(=O)NCc3ccc(F)cc3F)cn2N2[C@H](COC)CCC[C@@H]12` [II-150] it is 0.55 nM.
For `COC[C@@H]1CC[C@H]2N(C)C(=O)c3c(O)c(=O)c(C(=O)NCc4ccc(F)cc4F)cn3N12` [II-119], the EC50 was 0.54 nM.
`CCN1C(=O)c2c(O)c(=O)c(C(=O)NCc3c(F)cc(F)cc3F)cn2N2C[C@@H]3CCC[C@@H](C3)[C@@H]12` [II-016]: the EC50 stood at 0.65 nM. This EC50 and that of the compound before are within 1.5-fold of each other.
`CN1C(=O)c2c(O)c(=O)c(C(=O)NCc3ccc(F)cc3F)cn2N2Cc3ccccc3[C@@H]12` [II-116] returned an EC50 of 0.68 nM. The EC50 values of the last two compounds are within 1.5-fold of each other.
For `CCN1C(=O)c2c(O)c(=O)c(C(=O)NCc3ccc(F)c(Cl)c3F)cn2N2CCC[C@@H]12` [Compound I-005], the EC50 came out at 1.3 nM.
With `COC[C@@H](C)N1C(=O)c2c(O)c(=O)c(C(=O)NCc3ccc(F)cc3F)cn2N2CCCC[C@@H]12` [Compound I-040], the EC50 turned out to be 0.7 nM.
Regarding `O=C(NCc1ccc(F)cc1F)c1cn2c(c(O)c1=O)C(=O)N(C1CCC(F)(F)CC1)[C@@H]1CCCCN12` [Compound I-052], the EC50 is 5.5 nM.
Consider `CCN1C(=O)c2c(O)c(=O)c(C(=O)NCc3ccccc3OC)cn2N2CCCC[C@@H]12` [II-129], for which a half-maximal response (EC50) required 1.9 nM.
The figure for `CCN1C(=O)c2c(O)c(=O)c(C(=O)NCc3cccc(Cl)c3F)cn2N2[C@H](C)CC[C@@H]12` [II-008] is 1.5 nM; for `CCN1C(=O)c2c(O)c(=O)c(C(=O)NCc3ncc(F)cc3F)cn2N2CCCC[C@@H]12` [II-141] it is 0.65 nM; for `CCN1C(=O)c2c(O)c(=O)c(C(=O)NCc3ccc(F)nc3F)cn2N2C[C@@H]3CC[C@@H](C3)[C@@H]12` [II-056] it is 0.83 nM.
Take `CCN1C(=O)c2c(O)c(=O)c(C(=O)NCc3ncc(Cl)cc3F)cn2N2CCCC[C@@H]12` [II-076]: the EC50 came to 3.3 nM.
The value for `CCN1C(=O)c2c(O)c(=O)c(C(=O)N[C@H](C)c3cccc(Cl)c3F)cn2N2CCCC[C@@H]12` [II-012] was 3.6 nM.
In the case of `CCN1C(=O)c2c(O)c(=O)c(C(=O)NCc3ccc(F)c(Cl)c3F)cn2N2CCOC[C@@H]12` [Compound I-004], the EC50 was determined as 0.56 nM.
The figure for `C[C@H]1CC[C@H]2N(C)C(=O)c3c(O)c(=O)c(C(=O)NCc4ccc(F)cc4F)cn3N2C1` [II-117] is 2 nM; for `CCN1C(=O)c2c(O)c(=O)c(C(=O)NCc3ccc(F)cc3F)cn2N2[C@H]3CCC[C@H]3CC[C@@H]12` [II-030] it is 0.86 nM.
Take `CCN1C(=O)c2c(O)c(=O)c(C(=O)NCc3ccc(F)cc3F)cn2N2[C@H](C)CC[C@@]12C` [II-131]: the EC50 stood at 0.49 nM.
Consider `COC[C@@H]1CC[C@H]2N(C(C)C)C(=O)c3c(O)c(=O)c(C(=O)NCc4ccc(F)cc4F)cn3N12` [II-010], for which the EC50 was 1 nM.
`CCN1C(=O)c2c(O)c(=O)c(-c3nnc(Cc4ncc(Cl)cc4F)s3)cn2N2CCCC[C@@H]12` [II-098]: the EC50 is 4 nM. Against the preceding compound, the EC50 is about 4-fold higher.
`C[C@H]1CCN2[C@@H](C1)N(C)C(=O)c1c(O)c(=O)c(C(=O)NCc3cccc(Cl)c3F)cn12` [II-058]: the EC50 came out at 0.79 nM.
`CCN1C(=O)c2c(O)c(=O)c(C(=O)NCc3cccc(Cl)c3Cl)cn2N2CCCC[C@@H]12` [Compound I-033] yielded an EC50 of 2.5 nM.
The figure for `CN1C(=O)c2c(O)c(=O)c(C(=O)NCc3ccnc(Cl)c3F)cn2N2CCCC[C@@H]12` [II-103] is 3.7 nM.
The value for `O=C(NCc1ccc(F)cc1F)c1cn2c(c(O)c1=O)C(=O)N(C1CC(F)(F)C1)[C@@H]1CCCCN12` [Compound I-051] was 0.72 nM; that for `C[C@@H](N1C(=O)c2c(O)c(=O)c(C(=O)NCc3ccc(F)cc3F)cn2N2CCCC[C@@H]12)C(F)(F)F` [Compound I-041] was 0.66 nM.
`CN1C(=O)c2c(O)c(=O)c(C(=O)NCc3c(F)cc(F)cc3F)cn2N2CC3(CC3)C[C@@H]12` [II-139] showed an EC50 of 0.62 nM.
In the case of `C[C@@H]1CCN2[C@@H](C1)N(C)C(=O)c1c(O)c(=O)c(C(=O)NCc3c(F)cc(F)cc3F)cn12` [II-130], the EC50 is 0.13 nM. This EC50 lies about 4.8-fold lower than the previous one.
The value for `C[C@@H]1CCC[C@H]2N(C)C(=O)c3c(O)c(=O)c(C(=O)NCc4cccc(Cl)c4F)cn3N12` [II-014] was 0.55 nM.
Compound `CN1C(=O)c2c(O)c(=O)c(C(=O)NCc3c(F)cc(F)cc3F)cn2N2Cc3ccccc3[C@@H]12` [II-120] yielded an EC50 of 0.22 nM.
For the compound `CC(C)N1C(=O)c2c(O)c(=O)c(C(=O)NCc3c(F)cc(F)cc3F)cn2N2CC[C@@H](C)C[C@@H]12` [II-064], the EC50 worked out at 1.2 nM.
The compound `CCN1C(=O)c2c(O)c(=O)c(C(=O)NCc3ccc(F)cc3F)cn2N2CCN(C(=O)OC)C[C@@H]12` [II-125] showed an EC50 of 1.3 nM.
The compound `O=C(NCc1ccc(F)cc1F)c1cn2c(c(O)c1=O)C(=O)N([C@@H]1C[C@@H]1F)[C@@H]1CCCCN12` [Compound I-044] had an EC50 of 1.2 nM.
`CCN1C(=O)c2c(O)c(=O)c(C(=O)NCc3cc(F)c(F)c(F)c3)cn2N2CCCC[C@@H]12` [Compound I-037] returned an EC50 of 2 nM.
The compound `CCN1C(=O)c2c(O)c(=O)c(C(=O)NCc3ccc(F)cc3F)cn2N2CCCOC[C@@H]12` [II-107] registered an EC50 of 2.3 nM.
Turning to `CCN1C(=O)c2c(O)c(=O)c(C(=O)NCc3ccc(F)cc3F)cn2N2Cc3cc(Cl)ccc3[C@@H]12` [II-124], a half-maximal response (EC50) required 2.6 nM.
With `O=C(NCc1ccc(F)cc1F)c1cn2c(c(O)c1=O)C(=O)N(C1CC1)[C@@H]1CCCCN12` [Compound I-031], a half-maximal response (EC50) required 0.69 nM.
`CCN1C(=O)c2c(O)c(=O)c(C(=O)NCc3ncc(F)cc3Cl)cn2N2CCCC[C@@H]12` [II-095] showed an EC50 of 1.9 nM.
The value for `CN1C(=O)c2c(O)c(=O)c(C(=O)NCc3ccc(Cl)cc3F)cn2N2CCCC[C@@H]12` [II-045] was 2 nM; that for `CCN1C(=O)c2c(O)c(=O)c(C(=O)NCc3ccccc3OC(F)F)cn2N2CCCC[C@@H]12` [II-127] was 3.6 nM; that for `CCN1C(=O)c2c(O)c(=O)c(C(=O)NCc3c(F)cc(F)cc3F)cn2N2Cc3ccccc3[C@@H]12` [II-097] was 1 nM.
Turning to `C[C@@H]1CC[C@H]2N(C)C(=O)c3c(O)c(=O)c(C(=O)NCc4ccc(Cl)cc4F)cn3N12` [II-138], the concentration giving a half-maximal response (EC50) was determined as 2.1 nM.
`CCN1C(=O)c2c(O)c(=O)c(C(=O)N[C@@H](C)c3ccc(F)cc3F)cn2N2CCCC[C@@H]12` [Compound I-030] showed an EC50 of 36 nM.
